According to patent US20200297847A1, “Pharmaceutical Composition For Treating Obesity Induced By High Fat Diet And Non-Alcoholic Fatty Liver Disease By Using Trisodium Chlorin E6 Photosensitizer” (DONG SUNG PHARM. CO., LTD., priority 2017, published 2020):

Experiments:
[1] = test system: high-fat diet mice; assay: anti-obesity experiment (PDT, body weight of mice fed with high-fat diet); assay type: in vivo, C57 Black mice; conditions: group 5: HFD + 2.5 mg/kg intraperitoneally + high-level LED irradiation (4.96 mW/cm^2, 10 min, 2.98 J/cm^2); compared with group 4 (low-level LED) and group 1 (HFD); FIG. 2
Protocol: (§1) 6-week-old C57 Black mice were purchased and were fed with normal diet for a week of environmental adaptation.
(§2) After feeding with normal diet for a week, these mice were randomly divided into 7 groups and tested. The body weight thereof was measured periodically (three times per week), and an anti-obesity experiment was conducted when the body weight was about 20% more than the initial body weight. The anti-obesity experiment was as follows.
For group 1, only high-fat diet (HFD) was provided and the body weight was periodically measured (HFD).
For group 2, only high-fat diet (HFD) was provided and the body weight was periodically measured, and the mice were placed in an LED-illuminated cage when the body weight thereof was about 20% or more than the initial body weight, followed by irradiation with low-level LED light.
For group 3, only high-fat diet (HFD) was provided and the body weight was periodically measured, and the mice were placed in an LED-illuminated cage when the body weight thereof was about 20% or more than the initial body weight, followed by irradiation with high-level LED light.
For group 4, only high-fat diet (HFD) was provided and the body weight was periodically measured, and when the body weight was about 20% or more than the initial body weight, trisodium Chlorin e6 (2.5 mg/kg) was dissolved in 200 μl of a saline solution and administered intraperitoneally. […]

[2] = test system: high-fat diet mice; assay: lipid production and examination of non-alcoholic steatohepatitis (morphological examination of liver); assay type: in vivo, C57 Black mice; conditions: FIG. 3
Protocol: as §1, §2
For group 4, only high-fat diet (HFD) was provided and the body weight was periodically measured, and when the body weight was about 20% or more than the initial body weight, trisodium Chlorin e6 (2.5 mg/kg) was dissolved in 200 μl of a saline solution and administered intraperitoneally. After intraperitoneal administration thereof, the mice were allowed to adapt to a dark room for 3 hr and then placed in an LED-illuminated cage, followed by irradiation with low-level LED light.
For group 5, only high-fat diet (HFD) was provided and the body weight was periodically measured, and when the body weight was about 20% or more than the initial body weight, trisodium Chlorin e6 (2.5 mg/kg) was dissolved in 200 μl of a saline solution and administered intraperitoneally. […]

[3] = test system: mice; assay: toxicity detection (shape of whole body and internal organs after dissection); assay type: in vivo
Protocol: The mice treated with Chlorin e6 were tested for potential toxicity by observing the shape of the internal organs through dissection after killing.
The main concern in the development of medicaments or therapies is safety, and the safe use of medicaments means to effectively treat the disease with minimal or no toxicity in the body or parts of the body. Therefore, in the present experiment, the toxic effects of drugs and LED irradiation were examined. After the mice were dissected, the whole body and internal organs were examined in order to verify toxicity. […] It was observed that the liver was normal other than the fatty liver observed in the groups treated with HFD alone and LED alone (FIG. 6).

## trisodium Chlorin e6
[1]
  weight loss / reduction of percentage of weight gain: the most effective group
[2]; group 4: HFD + 2.5 mg/kg intraperitoneally + low-level LED irradiation (2.56 mW/cm^2, 5 min, 0.77 J/cm^2)
  non-alcoholic steatohepatitis (NASH): alleviated
[2]; group 5: HFD + 2.5 mg/kg intraperitoneally + high-level LED irradiation
  non-alcoholic steatohepatitis (NASH): alleviated
[3]; Chlorin e6 and LED irradiation in mice
  toxicity during treatment: Toxicity was not observed
[3]; mouse, in vivo
  internal organs after dissection: no bleeding, color change or gangrene in the intestines was observed
